Literature values in patent US9987593B2, “Method for producing NOx storage-reduction catalyst” (TOYOTA JIDOSHA KABUSHIKI KAISHA, priority 2016, dated 2018).

Row | solubility in water | solubility in water (in words) | Structure (SMILES)
1 | 0.18 mg/100 ml H2O | substantially insoluble in water | [K+].c1ccc([B-](c2ccccc2)(c2ccccc2)c2ccccc2)cc1 [potassium tetraphenylborate]
2 | – | substantially insoluble in water | O=C(O)c1nc(=O)[nH]c(=O)[nH]1 [oteracil potassium, reference compound]
